In series [1] the test system is lactose oxidase of the NUK-21 strain. As to the kind of experiment: Effects of chemicals on enzyme activity (dissolved oxygen assay). The format is biochemical, Myrmecridium flexuosum NUK-21. The method, then: The purified enzyme was added to A buffer containing 1 mM of various chemical solution and incubated in a water bath at 30° C. for 1 hour. Dissolved oxygen assay was used to determine the enzyme activity of lactose oxidase.

Series [2] has the same test system. It counts as biochemical, Myrmecridium flexuosum NUK-21.
Series [3] concerns NUK-21 strain. It counts as cell-based, Myrmecridium flexuosum NUK-21.
Series [4] relates to lactose oxidase of the NUK-21 strain. As to the kind of experiment: Substrate specificity of lactose oxidase (OD500 nm peroxidase chromogen assay). It counts as biochemical, Myrmecridium flexuosum NUK-21. The method, then:
Fifty mM of various buffers with different pH values were prepared, including CH3COOH—CH3COONa (pH 4.5-5.5), K2HPO4—NaH2PO4 (pH 5.5-8.0), Tris-HCl (pH 7.0-9.0), and Na2CO3—NaHCO3 (pH 9.0-11). Enzyme activity was determined by peroxidase chromogen method (Clin Chem, 1974; 20:470-475). The substrate, buffer and enzyme were premixed and reacted for 2 minutes, and then 4-aminoantipyrine (4-AA) coloring solution was added for reaction. A spectrophotometer was used to detect the absorbance of OD500 nm at room temperature (detection at every 15 seconds for a total of 90 seconds). The principle of the 4-AA assay is that the lactose oxidase oxidized lactose to lactobionic acid, which reduces dissolved oxygen to hydrogen peroxide, and the hydrogen peroxide, phenol, and 4-AA were catalyzed by the peroxidase to produce a red quinoneimine structure and show a stable signal at OD 500 nm.
The enzyme activity was defined as the enzyme concentration that produces 1 μmole hydrogen peroxide per minute. […] Calculation of enzyme activity: unit/ml=(ΔA500 nm/t)×(Vt/6.8)×(1/Ve)×n, in which ΔA500 nm:A500 nm variation in t minutes, 6.8: absorption coefficient of chromogenic material (mM^−1 cm^−1), Vt: total reaction volume, Ve: volume of enzyme was added, and n: fold of dilution of enzyme solution.
A spectrophotometer was used to detect the absorbance of OD500 nm at room temperature (detection at every 15 seconds for a total of 90 seconds), and the enzyme activity was determined.

The subject of series [5] is carbohydrate oxidases. Particulars: cited from earlier work.
Series [6] relates to carbohydrate oxidases from different strains. Particulars: cited from earlier work.
The mark [7] stands for this setting: metal ions 1 mM, 30° C., 1 hour, 0.7 mM lactose.
The mark [8] stands for this setting: metal ions 0.01%, 4% wheat bran medium, 30° C., 4 days.

Like-named read-outs stand apart in the source and are kept apart here.

For `c1cnc2c(c1)ccc1cccnc12` [1,10-phenanthroline], the Relative activity in series [1] (chemical 1 mM, 30° C., 1 hour) is 98.8%. In the case of `O=C(CBr)c1ccc(Br)cc1` [2,4′-dibromoacetophenone], the Relative activity in series [1] (chemical 1 mM, 30° C., 1 hour) worked out at 99%. Regarding `O=[N+]([O-])[O-].[Ag+]` [AgNO3], in series [2] (setting [7]), the Relative activity worked out at 107.9%. Besides, the Enzyme activity in series [3] (setting [8]) came to 0.28 unit/ml.

In series [3] (setting [8]), `O=S(=O)([O-])[O-].O=S(=O)([O-])[O-].O=S(=O)([O-])[O-].[Al+3].[Al+3]` [Al2(SO4)3] had an Enzyme activity of 0.37 unit/ml. `[Ca+2].[Cl-].[Cl-]` [CaCl2]: the Relative activity in series [2] (setting [7]) worked out at 109.5%. The Enzyme activity in series [3] (setting [8]) came to 0.20 unit/ml. In the same order, the values of `O=S(=O)([O-])[O-].[Cd+2]` [CdSO4] are 100% and 0.42 unit/ml. On to `O=C[C@H](O)[C@@H](O)[C@H](O[C@@H]1O[C@H](CO)[C@@H](O)[C@H](O)[C@H]1O)[C@H](O)CO` [Cellobiose], for which the Relative activity was determined as 83.4% in series [4] (0.7 mM substrate) and 81.7% in series [4] (7 mM substrate). For `[Cl-].[Cl-].[Co+2]` [CoCl2], the Relative activity in series [2] was 110.2%. This molecule also returned an Enzyme activity in series [3] of 0.26 unit/ml. Consider `O=S(=O)([O-])[O-].[Cu+2]` [CuSO4], for which, in series [2] (setting [7]), the Relative activity amounted to 96.8%. Also, in series [3] (setting [8]), the Enzyme activity is on record as 0.61 unit/ml.

As for `O=C(O)CN(CCN(CC(=O)O)CC(=O)O)CC(=O)O` [EDTA], in series [1], the Relative activity is 136.3% and the “effect on enzyme activity (in words)” value is reported as “activated”. For `O=S(=O)([O-])[O-].O=S(=O)([O-])[O-].O=S(=O)([O-])[O-].[Fe+3].[Fe+3]` [Fe2(SO4)3], the Enzyme activity in series [3] (setting [8]) is listed as 0.25 unit/ml.

`[Cl][Fe]([Cl])[Cl]` [FeCl3]: the Relative activity in series [2] (setting [7]) is given as 103.2%. For the same molecule, the Enzyme activity in series [3] (setting [8]) turned out to be 0.27 unit/ml.

On to `O=S(=O)([O-])[O-].[Fe+2]` [FeSO4], for which the Relative activity amounted to 61.1% in series [2] (setting [7]) and 61.3% in series [2] (metal ions 1 mM, 30° C., 1 hour, 0.7 mM lactose, listed as Fe^2+). Consider `O=C(CO)[C@@H](O)[C@H](O)[C@H](O)CO` [Fructose], for which the Relative activity in series [4] (0.7 mM substrate) and in series [4] (7 mM substrate) was 0% in each case. For `O=C[C@H](O)[C@@H](O)[C@@H](O)[C@H](O)CO` [Galactose], the figures for the Relative activity in series [4] (0.7 mM substrate) and in series [4] (7 mM substrate) were 0% and 1.8%, respectively. Regarding `OO` [H2O2], the Relative activity in series [1] (chemical 1 mM, 30° C., 1 hour) was determined as 100%.

Consider `[Cl][Hg][Cl]` [HgCl2], for which the Relative activity in series [2] (setting [7]) was found to be 153.8%. In series [3] (setting [8]), this molecule came in with an Enzyme activity of 0.02 unit/ml. Molecule `O=S(=O)([O-])[O-].[K+].[K+]` [K2SO4] had an Enzyme activity in series [3] (setting [8]) of 0.26 unit/ml. As for `OC[C@H]1O[C@@H](O[C@H]2[C@H](O)[C@@H](O)C(O)O[C@@H]2CO)[C@H](O)[C@@H](O)[C@H]1O` (stereo partly shown) [Lactose], the Relative activity in series [4] (0.7 mM substrate) and in series [4] (7 mM substrate) was 100% in each case. In the case of `OC[C@H]1O[C@H](O[C@H]2[C@H](O)[C@@H](O)[C@H](O)O[C@@H]2CO)[C@H](O)[C@@H](O)[C@@H]1O` [Maltose], the Relative activity stood at 4.1% in series [4] (0.7 mM substrate) and 24.8% in series [4] (7 mM substrate). The molecule `O=S(=O)([O-])[O-].[Mn+2]` [MnSO4] had an Enzyme activity in series [3] (setting [8]) of 0.37 unit/ml. Regarding `CCN1C(=O)C=CC1=O` [N-ethylmaleimide], in series [1] (chemical 1 mM), the “effect on enzyme activity (in words)” value is on record as “activated”. Further, in series [1] (chemical 1 mM, 30° C., 1 hour), the Relative activity turned out to be 139.5%. `O=S(=O)([O-])[O-].[Na+].[Na+]` [Na2SO4] showed an Enzyme activity in series [3] (setting [8]) of 0.26 unit/ml.

Regarding `[N-]=[N+]=[N-].[Na+]` [NaN3], in series [1] (chemical 1 mM), the “effect on enzyme activity (in words)” value is “activated”. In series [1] (chemical 1 mM, 30° C., 1 hour), the Relative activity is 131.3%. With `[Cl][Ni][Cl]` [NiCl2], the Enzyme activity in series [3] (setting [8]) is 0.43 unit/ml. For the molecule `O=S(=O)([O-])[O-].[Ni+2]` [NiSO4], in series [2] (setting [7]), the Relative activity is 100%. Regarding `O=S(=O)(F)Cc1ccccc1` [PMSF], the Relative activity in series [1] (chemical 1 mM, 30° C., 1 hour) came to 104.9%. In the case of `[Cl][Pb][Cl]` [PbCl2], the Relative activity in series [2] (setting [7]) was 89.7%. Further, the Enzyme activity in series [3] (setting [8]) is recorded as 0.29 unit/ml. Regarding `[Cl][Sn][Cl]` [SnCl2], the Relative activity in series [2] (setting [7]) stood at 61.3%; in series [2] (metal ions 1 mM, 30° C., 1 hour, 0.7 mM lactose, listed as Sn^2+), 89.7%. On to `[Cl][Sn]([Cl])([Cl])[Cl]` [SnCl4], for which the Enzyme activity in series [3] (setting [8]) was found to be 0.32 unit/ml. In the case of `OC[C@@H](O)[C@@H](O)[C@H](O)[C@@H](O)CO` [Sorbitol], the Relative activity in series [4] (0.7 mM substrate) and in series [4] (7 mM substrate) was 0% throughout. Take `OC[C@H]1O[C@@](CO)(O[C@H]2O[C@H](CO)[C@@H](O)[C@H](O)[C@H]2O)[C@@H](O)[C@@H]1O` [Sucrose]: the Relative activity in series [4] (0.7 mM substrate) and in series [4] (7 mM substrate) was 0% each time.

Regarding `OC[C@@H](O)[C@H](O)[C@@H](O)CO` [Xylitol], the Relative activity in series [4] (0.7 mM substrate) and in series [4] (7 mM substrate) was 0% each time. `O=C[C@H](O)[C@@H](O)[C@H](O)CO` [Xylose]: the Relative activity in series [4] (0.7 mM substrate) and in series [4] (7 mM substrate) was 0% in each case. In turn, `O=S(=O)([O-])[O-].[Zn+2]` [ZnSO4] showed an Enzyme activity in series [3] (setting [8]) of 0.22 unit/ml. As to `O=C(O)[C@H](O)[C@@H](O)[C@H](O[C@@H]1O[C@H](CO)[C@H](O)[C@H](O)[C@H]1O)[C@H](O)CO` [lactobionic acid], the Relative activity in series [4] (0.7 mM substrate) and in series [4] (7 mM substrate) was 0% in each case.

B1: Glucooligosaccharide oxidase: carbohydrate oxidase from Acremonium strictum (protein, UniProt Q6PW77 26-499, looked up)
Glucooligosaccharide oxidase: NSINACLAAADVEFHEEDSEGWDMDGTAFNLRVDYDPAAIAIPRSTEDIAAAVQCGLDAGVQISAKGGGHSYGSYGFGGEDGHLMLELDRMYRVSVDDNNVATIQGGARLGYTALELLDQGNRALSHGTCPAVGVGGHVLGGGYGFATHTHGLTLDWLIGATVVLADASIVHVSETENADLFWALRGGGGGFAIVSEFEFNTFEAPEIITTYQVTTTWNRKQHVAGLKALQDWAQNTMPRELSMRLEINANALNWEGNFFGNAKDLKKILQPIMKKAGGKSTISKLVETDWYGQINTYLYGADLNITYNYDVHEYFYANSLTAPRLSDEAIQAFVDYKFDNSSVRPGRGWWIQWDFHGGKNSALAAVSNDETAYAHRDQLWLWQFYDSIYDYENNTSPYPESGFEFMQGFVATIEDTLPEDRKGKYFNYADTTLTKEEAQKLYWRGNLEKLQAIKAKYDPEDVFGNVVSVEPIA
Regarding B1, in series [5], the “optimum pH” value is recorded as 10. The values for the Substrate specificity in series [6] (cellobiose) and in series [6] (lactose) were 120% and 100%, respectively. Also, the results for the Km in series [6] (substrate cellobiose) and in series [6] (substrate lactose) were 120 µM and 380 µM, respectively.
